Reference: patent US20250154219A1, “PEPTIDE ANALOGS” (Adepthera LLC, priority 2017, published 2025)

How the values were obtained:
Assay type in all cases: cell-based
[1] = biological target: T1, CLR/RAMP2 receptor (Homo sapiens, UniProt O60895+Q16602); assay: CLR/RAMP2 arrestin receptor-activation assay (agonist mode); details: for CLR/RAMP2 Max Activity % of positive control: agonist mode, positive control ADM; for receptor selectivity of agonists, in words: CLR/RAMP2 versus CLR/RAMP1;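 as to all read-outs here: agonist dose-response in recombinant cell lines stably expressing each receptor complex, duplicate wells over 10 threefold dilutions from a top concentration of 1.0 µM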
Method: (§1) Using a receptor activation assay, the dose-dependent stimulatory response of peptide agonists on a CLR/RAMP1 receptor, a CLR/RAMP2, or a CLR/RAMP3 receptor complex was determined. A cell line carrying the recombinant CLR/RAMP1, CLR/RAMP2, or a CLR/RAMP3 receptor was employed in the assay. Peptide agonist activities were tested, in duplicate, at 10 different concentrations, starting with 1.0 μM and serially diluted 3-fold, in DMSO. […] The CLR/RAMP1 CAMP, CLR/RAMP2 arrestin, and CLR/RAMP3 CAMP assays (DiscoveRx, Fremont, Calif.) were used.
(§2) The pharmacology of superagonistic activity of synthetic analogs was studied in cells that stably express CLR/RAMP1 (1321N1 cells), CLR/RAMP2 (CHO-K1 cells), or CLR/RAMP3 (CHO-K1 cells) receptors.
For the Arrestin assays, PathHunter cell lines (Discoverx Inc.) were expanded from freezer stocks, and seeded in a total volume of 20 μL into white walled, 384-well microplates and incubated at 37 C for the appropriate time prior to testing. For agonist determination, cells were incubated with sample to induce response. […] The microplates were read following signal generation with a PerkinElmer Envision™ instrument for chemiluminescent signal detection.
The compound activity was analyzed using a CBIS data analysis suite (ChemInnovation, CA). For agonist mode assays, percentage activity was calculated using the following formula:
% Activity=100%×(mean RLU of test sample−mean RLU of vehicle control)/(mean MAX control ligand−mean RLU of vehicle control).

[2] = biological target: T2, CLR/RAMP1 receptor (Homo sapiens, UniProt O60894+Q16602); assay: CLR/RAMP1 cAMP receptor-activation assay (agonist mode); details: for CLR/RAMP1 Max Activity % of positive control: agonist mode, positive control β-CGRP;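 as to all read-outs here: Dose–response over 10 threefold dilutions from 1.0 µM, run in duplicate, luminescent cAMP detection (RLU), activity scaled between vehicle control (0%) and maximal control (100%)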
Method: as §1, §2
For the analysis of Gs-coupled CAMP production, cAMP Hunter cell lines were expanded from freezer stocks, and cells were seeded in a total volume of 20 μL into white walled, 384-well microplates and incubated at 37 C for the appropriate time prior to testing. The CAMP modulation was determined using the DiscoverX HitHunter CAMP XS+ assay. For agonistic activity determination, cells were incubated with sample to induce response. Media was aspirated from cells and replaced with 15 μL 2:1 HBSS/10 mM Hepes: CAMP XS+Ab reagent. […] For Gs-coupled agonistic assays, percentage activity is calculated using the following formula: % Activity=100%×(mean RLU of test sample−mean RLU of vehicle control)/(mean RLU of MAX control−mean RLU of vehicle control).

[3] = biological target: T2, CLR/RAMP1 receptor; assay: CLR/RAMP1 cAMP assay, antagonist mode (CGRP-stimulated); details: for receptor selectivity of antagonists, in words: CLR/RAMP1 versus CLR/RAMP2; for CLR/RAMP1 Max Activity % of positive control (antagonist): antagonist mode
Method: A cell line carrying the recombinant CLR/RAMP1, CLR/RAMP2, or a CLR/RAMP3 receptor was employed in the assay. […] The CLR/RAMP1 CAMP, CLR/RAMP2 arrestin, and CLR/RAMP3 CAMP assays (DiscoveRx, Fremont, Calif.) were used.
For the analysis of antagonistic activity, synthetic analogs were pre-incubated with the cells before adding the reference ligand at its EC80. […] For the determination of antagonistic activity, cells were pre-incubated with sample followed by agonist challenge at the EC80 concentration. […] After appropriate compound incubation, assay signal was generated through incubation with 20 μL cAMP XS+ED/CL lysis cocktail for one hour followed by incubation with 20 μL cAMP XS+EA reagent for three hours at room temperature. Microplates were read following signal generation with a PerkinElmer Envision™ instrument for chemiluminescent signal detection.
For the antagonistic activity assay, percentage inhibition is calculated using the following formula: % Inhibition=100%×(1−(mean RLU of test sample−mean RLU of vehicle control)/(mean RLU of EC80 control−mean RLU of vehicle control)).

[4] = biological target: T1, CLR/RAMP2 receptor; assay: CLR/RAMP2 arrestin assay, antagonist mode (ADM-stimulated)
Method: A cell line carrying the recombinant CLR/RAMP1, CLR/RAMP2, or a CLR/RAMP3 receptor was employed in the assay. Peptide agonist activities were tested, in duplicate, at 10 different concentrations, starting with 1.0 μM and serially diluted 3-fold, in DMSO. […] The CLR/RAMP1 CAMP, CLR/RAMP2 arrestin, and CLR/RAMP3 CAMP assays (DiscoveRx, Fremont, Calif.) were used.
For the analysis of antagonistic activity, synthetic analogs were pre-incubated with the cells before adding the reference ligand at its EC80. […] For antagonistic activity determination, cells were pre-incubated with antagonist followed by agonist challenge at the EC80 concentration. […] Then, 5 μL of 6× EC80 agonist in assay buffer was added to the cells and incubated at 37 C or room temperature for 90 or 180 minutes.
The microplates were read following signal generation with a PerkinElmer Envision™ instrument for chemiluminescent signal detection.
% Activity=100%×(mean RLU of test sample−mean RLU of vehicle control)/(mean MAX control ligand−mean RLU of vehicle control). For antagonistic activity assays, percentage inhibition was calculated using the following formula: % Inhibition=100%×(1−(mean RLU of test sample−mean RLU of vehicle control)/(mean RLU of EC80 control−mean RLU of vehicle control)).

T2 sequence (Q16602 23-461): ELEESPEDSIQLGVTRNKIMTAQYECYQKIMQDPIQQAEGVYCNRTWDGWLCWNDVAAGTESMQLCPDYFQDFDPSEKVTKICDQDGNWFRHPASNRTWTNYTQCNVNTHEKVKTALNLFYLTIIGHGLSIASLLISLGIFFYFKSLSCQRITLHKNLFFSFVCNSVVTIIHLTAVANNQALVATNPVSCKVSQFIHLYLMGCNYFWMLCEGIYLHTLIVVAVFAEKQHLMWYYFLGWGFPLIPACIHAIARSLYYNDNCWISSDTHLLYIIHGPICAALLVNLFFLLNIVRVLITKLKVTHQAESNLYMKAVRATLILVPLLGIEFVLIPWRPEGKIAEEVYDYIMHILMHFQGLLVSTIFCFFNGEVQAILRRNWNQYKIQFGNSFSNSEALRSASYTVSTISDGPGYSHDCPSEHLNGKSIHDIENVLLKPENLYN
T2 sequence (O60894 27-148): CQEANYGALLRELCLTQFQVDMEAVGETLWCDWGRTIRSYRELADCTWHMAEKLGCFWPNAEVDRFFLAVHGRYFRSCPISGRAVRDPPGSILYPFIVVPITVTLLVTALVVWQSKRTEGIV
T1 sequence (Q16602 23-461): as the sequence (Q16602 23-461) above
T1 sequence (O60895 43-175): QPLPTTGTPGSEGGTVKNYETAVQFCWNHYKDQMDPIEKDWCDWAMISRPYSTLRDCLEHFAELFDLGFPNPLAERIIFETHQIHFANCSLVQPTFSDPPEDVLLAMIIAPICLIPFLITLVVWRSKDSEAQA

Row | Compound | CLR/RAMP2 Max Activity % of positive control [1] | CLR/RAMP1 Max Activity % of positive control [2] | further results
1 | Pyr(glu)-LYENKPRRPYIL-miniPEG-K(PAL)GCRFGTCTVQKLAHQIYQFTDKDVAPRSKISPQGY-NH2 [SEQ ID NO: 223] | 70 % of positive control | 102 % of positive control | –
2 | miniPEG-K(PAL)GCRFGTCTVQKLAHQIYQFTDKDKQDSAPVDPSSPHSY-NH2 [SEQ ID NO: 51] | 107 % of positive control | 65 % of positive control | –
3 | Ace-PEG3-K([19-carboxy-nonadecanoyl]-isoGlu)GCRFGTCTVQKLAHQIYQFTDKDKDNVAPRSKISPQGY-NH2 [SEQ ID NO: 155] | 95 % of positive control | 81 % of positive control | –
4 | miniPEG-K(PAL)GCRFGTCTVQKLAHQIYQFTDKGRQDSAPVDPSSPHSY-NH2 [SEQ ID NO: 68] | 70 % of positive control | – | –
5 | Ace-Y(D-Ala)GF(D-Leu)-miniPEG-K(Pal)VQKLSAPVDPSSPHSY-NH2 [SEQ ID NO: 145] | – | – | receptor selectivity of antagonists, in words [3]: CLR/RAMP1-selective; CLR/RAMP1 Max Activity % of positive control (antagonist) [3]: 99 % of positive control; CLR/RAMP2 Max Activity % of positive control (antagonist) [4]: 100 % of positive control
6 | miniPEG-K(PAL)GCRFGTCT(D-Val)QKLAHQIYQFTDKDVAPRSKISPQGY-NH2 [SEQ ID NO: 211] | 22 % of positive control | 91 % of positive control | receptor selectivity of agonists, in words [1]: CLR/RAMP2-selective
7 | AcePEG3--K([17-carboxy-heptadecanoyl]-isoGlu-Peg3-Peg3)GCRFGTCTVQKLAHQIYQFTDKDKDNVAPRSKISPQGY-NH2 [SEQ ID NO: 158] | 113 % of positive control | 95 % of positive control | –
8 | Human β-CGRP [Wild type CGRP-β positive, reference compound] | – | 100 % of positive control | –
9 | miniPEG-K(PAL)GCRFGTCTVQKLAHQIYQFTDKDKDNVAPVDPSSPHSY-NH2 [SEQ ID NO: 50] | 87 % of positive control | 65 % of positive control | –
10 | Pal-KVQNLSAPVDPSSPHSY-NH2 [SEQ ID NO: 141] | – | – | antagonistic activity toward CLR/RAMP1 and/or CLR/RAMP2, in words [3]: minimal antagonizing activities; CLR/RAMP1 Max Activity % of positive control (antagonist) [3]: 43 % of positive control; CLR/RAMP2 Max Activity % of positive control (antagonist) [4]: 14 % of positive control
11 | Ace-PEG3-K(Hexadecanoyl-isoGlu-PEG3)GCRFGTCTVQKLAHQIYQFTDKDKDNVAPRSKISPQGY-NH2 [SEQ ID NO: 152] | 132 % of positive control | 80 % of positive control | –
12 | Ace-PEG12-PEG12-K([19-carboxy-nonadecanoyl]-isoGlu-PEG3)GCRFGTCTVQKLAHQIYQFTDKDKDNVAPRSKISPQGY-NH2 [SEQ ID NO: 150] | 60 % of positive control | 94 % of positive control | –
13 | Ace-PEG3-K(Hexadecanoyl-PEG3-isoGlu)GCRFGTCTVQKLAHQIYQFTDKDKDNVAPRSKISPQGY-NH2 [SEQ ID NO: 154] | 112 % of positive control | 83 % of positive control | –
14 | Ace-RPKPQQFFGLM-miniPEG-K(PAL)GCRFGTCTVQKLAHQIYQFTDKDSAPVDPSSPHSY-NH2 [SEQ ID NO: 147] | 90 % of positive control | 109 % of positive control | –
15 | miniPEG-K(PAL)VQKLSAPVDPSSPHSY-NH2 [SEQ ID NO: 140] | – | – | receptor selectivity of antagonists, in words [3]: CLR/RAMP1-selective; CLR/RAMP1 Max Activity % of positive control (antagonist) [3]: 100 % of positive control; CLR/RAMP2 Max Activity % of positive control (antagonist) [4]: 90 % of positive control
16 | Ace-PEG3-K([19-carboxy-nonadecanoyl]-PEG3-isoGlu)GCRFGTCTVQKLAHQIYQFTDKDKDNVAPRSKISPQGY-NH2 [SEQ ID NO: 156] | 91 % of positive control | 88 % of positive control | –
17 | miniPEG-K(PAL)GCRFGTCTVQKLAHQIYQFTDKDVAPRSKISP(D-Gln)GY-NH2 [SEQ ID NO: 214] | 99 % of positive control | 112 % of positive control | receptor selectivity of agonists, in words [1]: CLR/RAMP2-selective

Row | Compound | CLR/RAMP2 Max Activity % of positive control [1] | CLR/RAMP1 Max Activity % of positive control [2] | further results
18 | miniPEG-TK(Pal)KTLRTGCRFGTCTVQKLAHQIYQFTDKDKDNVAPVDPSSPHSY-NH2 [SEQ ID NO: 42] | 76 % of positive control | 56 % of positive control | –
19 | Ace-NFVPTNVGPFAF-NH2 [SEQ ID NO: 144] | – | – | antagonistic activity toward CLR/RAMP1 and/or CLR/RAMP2, in words [3]: minimal antagonizing activities; CLR/RAMP1 Max Activity % of positive control (antagonist) [3]: 98 % of positive control; CLR/RAMP2 Max Activity % of positive control (antagonist) [4]: 0 % of positive control
20 | Ace-KRPPGFSPFR-miniPEG-K(Pal)VQKLAHQIYQFTDKDVAPRSKISPQGY-NH2 [SEQ ID NO: 149] | – | – | receptor selectivity of antagonists, in words [3]: pan-specific; CLR/RAMP1 Max Activity % of positive control (antagonist) [3]: 101 % of positive control; CLR/RAMP2 Max Activity % of positive control (antagonist) [4]: 99 % of positive control
21 | miniPEG-K(PAL)GCRFGTCTVQKLAHQIYQFTDKDVAPR(D-Ser)KISPQGY-NH2 [SEQ ID NO: 213] | 107 % of positive control | 115 % of positive control | –
22 | miniPEG-K(PAL)TKKTLRTGCRFGTCTVQKLAHQIYQFTDKDKDNVAPRSKISPQGY-NH2 [SEQ ID NO: 70] | 68 % of positive control | 69 % of positive control | –
23 | Ace-PEG3-K(Hexadecanoyl-isoGlu-PEG3-PEG3)GCRFGTCTVQKLAHQIYQFTDKDKDNVAPRSKISPQGY-NH2 [SEQ ID NO: 153] | 108 % of positive control | 78 % of positive control | –
24 | Ace-PEG3-K([19-carboxy-nonadecanoyl]-isoGlu-Peg3-Peg3)GCRFGTCTVQKLAHQIYQFTDKDKDNVAPRSKISPQGY-NH2 [SEQ ID NO: 157] | 95 % of positive control | 100 % of positive control | –
25 | Ace-PEG3-K([19-carboxy-nonadecanoyl]-isoGlu-PEG3)GCRFGTCTVQKLAHQIYQFTDKDVAPRSKISPQGY-NH2 [SEQ ID NO: 159] | 60 % of positive control | 90 % of positive control | –
26 | miniPEG-K(PAL)CRFGTCTVQKLAHQIYQFTDKDKDNSAPVDPSSPHSY-NH2 [SEQ ID NO: 43] | 30 % of positive control | 39 % of positive control | –
27 | miniPEG-K(PAL)GCRFGTCTVQKLAHQIYQFTDKDKDNVDPSSPHSY-NH2 [SEQ ID NO: 94] | 82 % of positive control | 67 % of positive control | receptor selectivity of agonists, in words [1]: CLR/RAMP2-selective
28 | miniPEG-K(PAL)GCRFGTC(D-Thr)VQKLAHQIYQFTDKDVAPRSKISPQGY-NH2 [SEQ ID NO: 210] | 47 % of positive control | 77 % of positive control | receptor selectivity of agonists, in words [1]: CLR/RAMP2-selective
29 | miniPEG-K(PAL)GCRFGTCTVQKLAHQIYQFTDKDKSAPVDPSSPHSY-NH2 [SEQ ID NO: 47] | 64 % of positive control | 85 % of positive control | –
30 | CSCC[C@H](NC(=O)CNC(=O)CNC(=O)[C@H](CO)NC(=O)[C@H](CCCNC(=N)N)NC(=O)[C@H](CO)NC(=O)[C@H](CC(C)C)NC(=O)[C@H](CC(C)C)NC(=O)CNC(=O)[C@H](C)NC(=O)[C@H](CC(C)C)NC(=O)[C@H](CCCNC(=N)N)NC(=O)[C@H](Cc1c[nH]cn1)NC(=O)[C@@H](NC(=O)[C@@H](NC(=O)[C@@H]1CSSC[C@H](NC(=O)[C@H](C)N)C(=O)N[C@@H](CC(N)=O)C(=O)N[C@@H]([C@@H](C)O)C(=O)N[C@@H](C)C(=O)N[C@@H]([C@@H](C)O)C(=O)N1)C(C)C)[C@@H](C)O)C(=O)N[C@H](C(=O)N[C@@H](CCCCN)C(=O)N[C@@H](CO)C(=O)N[C@@H](CC(N)=O)C(=O)N[C@@H](Cc1ccccc1)C(=O)N[C@H](C(=O)N1CCC[C@H]1C(=O)N[C@H](C(=O)N[C@@H](CC(N)=O)C(=O)N[C@H](C(=O)NCC(=O)N[C@@H](CO)C(=O)N[C@@H](CCCCN)C(=O)N[C@@H](C)C(=O)N[C@@H](Cc1ccccc1)C(N)=O)C(C)C)[C@@H](C)O)C(C)C)C(C)C [SEQ ID NO: 143, reference compound] | – | 103 % of positive control | –
31 | Ace-PEG3-K(Hexadecanoyl-isoGlu)GCRFGTCTVQKLAHQIYQFTDKDKDNVAPRSKISPQGY-NH2 [SEQ ID NO: 151] | 134 % of positive control | 85 % of positive control | –
32 | miniPEG-K(PAL)GCRFGTCTVQKLAHQIYQFTDKDKDNVAPRSKSSPHSY-NH2 [SEQ ID NO: 61] | 92 % of positive control | 70 % of positive control | –
33 | miniPEG-K(PAL)GCRFGTCTVQKLAHQIYQFTDKDKDSAPVDPSSPHSY-NH2 [SEQ ID NO: 46] | 104 % of positive control | 60 % of positive control | –
34 | Ace-FGCRFGTCTVQKLAHQIYQFTDKDKDNVAPRSKISPQGY-NH2 [SEQ ID NO: 53, reference compound] | 102 % of positive control | 69 % of positive control | agonistic potency for CLR/RAMP1 and/or CLR/RAMP2 receptors, in words ([2]; CLR/RAMP1 and/or CLR/RAMP2): low potency ligands
